From patent US11912723B2, “KRAS modulators and uses thereof” (Quanta Therapeutics, Inc., priority 2022, dated 2024)

target: T1, GST-tagged KRAS G12D (2-169) (Homo sapiens, UniProt P01116, G12D); test: Nucleotide exchange assay (NEA), HTRF of SOS-mediated GTP-DY-647P1 binding; type: biochemical; conditions: 5 nM GST-KRAS G12D, 20 nM SOScat, 150 nM GTP; compound 1 h at RT
T1 construct: GST-tagged KRAS^G12D (2-169, Reaction Biology, MSC-11-539); purchased Reaction Biology MSC-11-539 (KRAS G12D); MSC-11-502 (SOS1cat)
T1 sequence (P01116 2-169 isoform P01116-2 G12D): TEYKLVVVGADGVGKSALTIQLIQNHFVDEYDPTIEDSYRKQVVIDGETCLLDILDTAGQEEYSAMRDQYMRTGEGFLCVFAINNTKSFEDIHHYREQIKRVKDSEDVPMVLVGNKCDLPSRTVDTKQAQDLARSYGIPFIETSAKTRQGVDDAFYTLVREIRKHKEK
Text: This activity is tightly regulated by GTPase activating proteins (GAPs) and guanine nucleotide exchange factors (GEFs). GEFs, such as SOS1/2, activate Ras proteins by exchanging GDP for GTP, thus returning Ras to its active conformation (Simanshu, Nissley, & McCormick, 2017). […] Homogenous time resolved fluorescence (HTRF) was used to detect SOS-mediated binding of a fluorescent GTP analog, GTP-DY-647P1 (Jena Biosciences NU-820-647P1) to GST-tagged KRAS^G12D (2-169, Reaction Biology, MSC-11-539).
GST-tagged KRAS^G12D (2-169) and anti-GST MAb Tb Cryptate Gold (CisBio 61GSTTLB) were diluted into assay buffer (20 mM HEPES, pH 7.3, 150 mM NaCl, 5 mM MgCl2, 0.05% BSA 0.0025% NP40, 1 mM DTT) to prepare a 2.5× donor solution. 5× compound was added to the protein mixture and incubated for 1 h at RT. 2.5× acceptor solution containing SOS1cat (564-1049, Reaction Biology MSC-11-502) and GTP-DY-647P1 were then added to the donor KRAS mixture such that the final concentration of the reaction contained 5 nM GST-tagged KRAS^G12D (2-169), 20 nM SOScat, and 150 nM GTP. The reaction was monitored using at RT with the Envision multimode plate reader (Ex/Em 337/665, […]) up to 90 minutes at 5 minute intervals. Data was blanked to reactions without SOS1 and % inhibition was calculated such that DMSO only=0% and blank=100%. Curve fitting was done using a 4 parameter fit. NEA KRAS G12D ID50 (uM) values of selected compounds are depicted in Table 2 with compounds having a value<0.01 uM as ++++; >0.01 uM to 0.1 uM as +++; >0.1 uM to 1 uM as ++; >1 uM to 20 uM as +; and >20 uM as NA.

Row | Compound | IC50 [µM]
1 | O=C1CCCN(c2nc(OCC34CCCN3CC(F)C4)nc3c2COC2(CCc4c(Cl)cccc42)C3)CC1 (mixture of isomers) [Compound 21, 1-[4′-chloro-2-[[rac-(2R,8S)-2-fluoro-1,2,3,5,6,7-hexahydropyrrolizin-8-yl]methoxy]spiro[5,8-dihydropyrano[4,3-d]pyrimidine-7,1′-indane]-4-yl]azepan-4-one] | 1 to 20
2 | N#Cc1c(N)sc2c1C1(CCC2)Cc2nc(OC[C@@]34CCCN3C[C@H](F)C4)nc(N3CCCCCC3)c2CO1 (mixture of isomers) [Compound 26, 2′-amino-4-(azepan-1-yl)-2-[[rac-(2R,8S)-2-fluoro-1,2,3,5,6,7-hexahydropyrrolizin-8-yl]methoxy]spiro[5,8-dihydropyrano[4,3-d]pyrimidine-7,4′-6,7-dihydro-5H-benzothiophene]-3′-carbonitrile] | 1 to 20
3 | C[C@@]1(O)CCCN(c2nc(OC[C@@]34CCCN3C[C@H](F)C4)nc3c2COC2(CCc4c(Cl)cccc42)C3)C1 (single isomer, unassigned) [Compound 23B, (3R)-1-[(7*)-4′-chloro-2-[[(2R,8S)-2-fluoro-1,2,3,5,6,7-hexahydropyrrolizin-8-yl]methoxy]spiro[5,8-dihydropyrano[4,3-d]pyrimidine-7,1′-indane]-4-yl]-3-methyl-piperidin-3-ol] | 1 to 20
4 | O=C1NC(=O)[C@]2(CCCN(c3nc(OC[C@@]45CCCN4C[C@H](F)C5)nc4c3COC3(CCCc5c(Cl)cc(O)cc53)C4)C2)N1 (single isomer, unassigned) [Compound 51A, (5R)-9-[(7*)-5′-chloro-2-[[(2R,8S)-2-fluoro-1,2,3,5,6,7-hexahydropyrrolizin-8-yl]methoxy]-7′-hydroxy-spiro[5,8-dihydropyrano[4,3-d]pyrimidine-7,1′-tetralin]-4-yl]-1,3,9-triazaspiro[4.5]decane-2,4-dione] | 1 to 20
5 | OC1CCCN(c2nc(OC[C@@]34CCCN3C[C@H](F)C4)nc3c2COC2(CCCc4ccc(F)cc42)C3)CC1 (stereo partly drawn) [Compound 11, 1-[7′-fluoro-2-[[(2R,8S)-2-fluoro-1,2,3,5,6,7-hexahydropyrrolizin-8-yl]methoxy]spiro[5,8-dihydropyrano[4,3-d]pyrimidine-7,1′-tetralin]-4-yl]azepan-4-ol] | 1 to 20
6 | F[C@H]1CN2CCC[C@@]2(COc2nc3c(c(N4CCCCCC4)n2)COC2(CCCc4ccccc42)C3)C1 (stereo partly drawn) [Compound 12, 4-(azepan-1-yl)-2-[[(2R,8S)-2-fluoro-1,2,3,5,6,7-hexahydropyrrolizin-8-yl]methoxy]spiro[5,8-dihydropyrano[4,3-d]pyrimidine-7,1′-tetralin]] | 1 to 20
7 | O[C@@H]1CCN(c2nc(OC[C@@]34CCCN3C[C@H](F)C4)nc3c2COC2(CCc4c(Cl)cccc42)C3)CC[C@@H]1O (stereo partly drawn) [Compound 22, syn-1-[4′-chloro-2-[[(2R,8S)-2-fluoro-1,2,3,5,6,7-hexahydropyrrolizin-8-yl]methoxy]spiro[5,8-dihydropyrano[4,3-d]pyrimidine-7,1′-indane]-4-yl]azepane-4,5-diol] | 1 to 20
8 | N#CN[C@@H]1CCCCN(c2nc(OC[C@@]34CCCN3C[C@H](F)C4)nc3c2CO[C@@]2(CCc4c(Cl)cccc42)C3)C1 [Compound 44, [(3R)-1-[(7S)-4′-chloro-2-[[(2R)-2-fluoro-1,2,3,5,6,7-hexahydropyrrolizin-8-yl]methoxy]spiro[5,8-dihydropyrano[4,3-d]pyrimidine-7,1′-indane]-4-yl]azepan-3-yl]cyanamide] | 1 to 20
9 | C[C@@]1(NC#N)CCCN(c2nc(OC[C@@]34CCCN3C[C@H](F)C4)nc3c2COC2(CCc4c(Cl)cccc42)C3)C1 (stereo partly drawn) [Compound 46B, [(3R)-1-[(7*)-4′-chloro-2-[[(2R,8S)-2-fluoro-1,2,3,5,6,7-hexahydropyrrolizin-8-yl]methoxy]spiro[5,8-dihydropyrano[4,3-d]pyrimidine-7,1′-indane]-4-yl]-3-methyl-3-piperidyl]cyanamide; 2,2,2-trifluoroacetic acid] | 1 to 20
10 | O=C(c1nn2c(c1Cl)CN(c1nc(OC[C@@]34CCCN3C[C@H](F)C4)nc3c1CO[C@@]1(CCc4c(Cl)cccc41)C3)CCC2)N1CCS(=O)(=O)CC1 [Compound 56, [3-chloro-5-[(7R)-4′-chloro-2-[[(2R,8S)-2-fluoro-1,2,3,5,6,7-hexahydropyrrolizin-8-yl]methoxy]spiro[5,8-dihydropyrano[4,3-d]pyrimidine-7,1′-indane]-4-yl]-4,6,7,8-tetrahydropyrazolo[1,5-a][1,4]diazepin-2-yl]-(1,1-dioxo-1,4-thiazinan-4-yl)methanone] | 0.01 to 0.1
11 | CN1Cc2c(nc(OC[C@@]34CCCN3C[C@H](F)C4)nc2N2CCC[C@]3(C2)NC(=O)NC3=O)C[C@]12CCc1c(Cl)cccc12 [Compound 58, (5R)-9-[(7S)-4′-chloro-2-[[(2R,8S)-2-fluoro-1,2,3,5,6,7-hexahydropyrrolizin-8-yl]methoxy]-6-methyl-spiro[5,8-dihydropyrido[4,3-d]pyrimidine-7,1′-indane]-4-yl]-1,3,9-triazaspiro[4.5]decane-2,4-dione] | 0.01 to 0.1
12 | CN(C)C(=O)c1nn2c(c1Cl)CN(c1nc(OC[C@@]34CCCN3C[C@H](F)C4)nc3c1COC1(CCc4ccc(C(F)F)cc41)C3)CCC2 (stereo partly drawn) [Compound 75, 3-chloro-5-[6′-(difluoromethyl)-2-[[(2R,8S)-2-fluoro-1,2,3,5,6,7-hexahydropyrrolizin-8-yl]methoxy]spiro[5,8-dihydropyrano[4,3-d]pyrimidine-7,1′-indane]-4-yl]-N,N-dimethyl-4,6,7,8-tetrahydropyrazolo[1,5-a][1,4]diazepine-2-carboxamide] | 0.1 to 1
13 | CN(C)C(=O)c1nn2c(c1Cl)CN(c1nc(OC[C@@]34CCCN3C[C@H](F)C4)nc3c1CN(CC#N)[C@@]1(CCc4cccc(F)c41)C3)CCC2 [Compound 101, 3-chloro-5-[(7S)-6-(cyanomethyl)-7′-fluoro-2-[[(2R,8S)-2-fluoro-1,2,3,5,6,7-hexahydropyrrolizin-8-yl]methoxy]spiro[5,8-dihydropyrido[4,3-d]pyrimidine-7,1′-indane]-4-yl]-N,N-dimethyl-4,6,7,8-tetrahydropyrazolo[1,5-a][1,4]diazepine-2-carboxamide] | 0.1 to 1
14 | CN(C)C(=O)c1nn2c(c1Cl)CN(c1nc(OC[C@@]34CCCN3C[C@H](F)C4)nc3c1CN(CC#N)[C@@]1(CCCc4ccccc41)C3)CCC2 [Compound 102, 3-chloro-5-[(7S)-6-(cyanomethyl)-2-[[(2R,8S)-2-fluoro-1,2,3,5,6,7-hexahydropyrrolizin-8-yl]methoxy]spiro[5,8-dihydropyrido[4,3-d]pyrimidine-7,1′-tetralin]-4-yl]-N,N-dimethyl-4,6,7,8-tetrahydropyrazolo[1,5-a][1,4]diazepine-2-carboxamide] | 0.01 to 0.1
15 | CCN1Cc2c(nc(OC[C@@]34CCCN3C[C@H](F)C4)nc2N2CCCn3nc(C(=O)N(C)C)c(Cl)c3C2)C[C@]12CCc1cccc(F)c12 [Compound 103, 3-chloro-5-[(7S)-6-ethyl-7′-fluoro-2-[[(2R,8S)-2-fluoro-1,2,3,5,6,7-hexahydropyrrolizin-8-yl]methoxy]spiro[5,8-dihydropyrido[4,3-d]pyrimidine-7,1′-indane]-4-yl]-N,N-dimethyl-4,6,7,8-tetrahydropyrazolo[1,5-a][1,4]diazepine-2-carboxamide] | 0.01 to 0.1
